pIC50: −log10 of the molar value.
What was measured:
[1] = system: MS2 DNA fragment (MS2F and MS2R); test: DNase I footprinting on MS2 DNA fragment; type: binding; settings: for footprint shape at position H (footnote 1) / footprint shape at position J (footnote 2): MS2 DNA fragment; for footprint shape at position H (footnote 1): site H; for footprint shape at position J (footnote 2): site J
Description: The sequence selectivity of the six PBD-pyrrole conjugates (GWL 77, GWL 78, GWL 79, GWL 80, GWL 81 and GWL 82) was evaluated by standard DNA footprinting on a fragment of MS2 as follows, in accordance with the technique described in Martin, Biochemistry (2005) 44:4135-4147.
The vast majority of footprint sites are common features in the binding profiles of all six conjugates, with only a small number of sites being footprinted by a subset of the family. Even more unexpectedly, no site is footprinted by only one molecule (in fact, the fewest number of conjugates that bind at any single site is four). The differential cleavage plot in FIG. 5 provides footprinting profiles at a supramaximal concentration color-coded for each conjugate which illustrates a striking degree of overlap. Although there is no conspicuous change in footprinting patterns as the number of pyrroles units in each conjugate increases, there are changes in two other features, namely, the apparent binding affinity and the width of the footprinted site. […] To simplify comparison between molecules, only the most significant footprint site (5′-^62[…]^70−3′/3′-[…]-5′) (SEQ ID NO:24) was selected for comparison. When the binding affinity of each molecule is compared to the relative number of pyrrole units it contains, a parabolic relationship is observed. By this method, GWL 80 (four pyrroles) appears to be the strongest binder with a DNase IC50 of around 30 nM. Conjugate GWL 79 (three pyrroles) and GWL 81 (five pyrroles) follow closely with affinities in the region of 30-100 nM. […] Finally, GWL 77 (one pyrrole) is a particularly weak footprinting molecule with an DNase IC50 of about, or in excess of, 10 μM.

[2] = system: K562 human chronic myeloid leukemia cells; test: In vitro cytotoxicity assay (MTT); type: cell-based; settings: K562, one hour exposure, MTT after four days
Description: In one aspect of this test, K562 human chronic myeloid leukemia cells are maintained in RPMI1640 medium supplemented with 10% fetal calf serum and 2 mM glutamine at 37° C. in a humidified atmosphere containing 5% CO2 and are incubated with a specified dose of drug for one hour at 37° C. in the dark. The incubation is terminated by centrifugation (5 min, 300 g) and the cells are washed once with drug-free medium. Following the appropriate drug treatment, the cells are transferred to 96-well microtiter plates (10^4 cells per well, 8 wells per sample). Plates are then kept in the dark at 37° C. in a humidified atmosphere containing 5% CO2. The assay is based on the ability of viable cells to reduce a yellow soluble tetrazolium salt, 3-(4,5-dimethylthiazol-2-yl)-2,5-diphenyl-2H-tetrazolium bromide (MTT, Aldrich-Sigma), to an insoluble purple formazan precipitate. Following incubation of the plates for four days (to allow control cells to increase in number by approximately 10 fold), 20 μL of MTT solution (5 mg/ml in phosphate-buffered saline) is added to each well and the plates further incubated for five hours. […] The optical density is then read at a wavelength of 550 nm on a […]™ (Titertek Labsystems, Finland) ELISA plate reader, and a dose-response curve is constructed. […]

[3] = system: MCF-7 human mammary cells; test: Cellular uptake and nuclear incorporation, confocal microscopy; type: cell-based; settings: for nuclear uptake: 200 μM over 24 hour; for time to cellular uptake / detection: MCF-7 cells; for nuclear fluorescence: highest drug concentrations, exposure time 24 hour
Description: Cellular uptake and nuclear incorporation of drug into MCF-7 human mammary cells was visualized using confocal microscopy. Conjugates GWL 77, GWL78, GWL 79, GWL 80 and GWL 81 were prepared in DMSO at 20 mM and diluted in RPMI to the appropriate concentration. Freshly harvested MCF7 cells at 5×10^4 cells/ml were placed in 200 μl of complete RPMI1640 (containing 10% FCS) into the wells of 8-well chambered cover-glasses. Cells were left overnight to adhere at 37° C. […] At 1, 5 and 24 hours after addition of conjugates, the cells were examined using a Nikon TE2000 with UV filter set and viewed under oil immersion with the x63 objective lens.

[4] = differential cleavage analysis, compared with GWL 79

Row | Compound | apparent binding affinity relative to GWL 79 ([1]; C11 versus GWL 79) | binding at positions K and L [1, 4] | footprints at positions D, M and G [1, 4] | footprint at position G ([1]; differential cleavage analysis) | pIC50 ([1]; read-out: DNase IC50 (concentration of conjugate providing 50% inhibition of DNase I-mediated cleavage), site 5'-62CAATACACA70-3', estimated by eye from footprint images) | pIC50 [2] | nuclear uptake [3] | time to cellular uptake / detection [3] [h] | nuclear fluorescence [3] | footprint shape at position H (footnote 1) [1] | footprint shape at position J (footnote 2) [1]
1 | COC(=O)c1cc(NC(=O)c2cc(NC(=O)c3cc(NC(=O)CCOc4cc5c(cc4OC)C(=O)N4CCC[C@H]4C=N5)cn3C)cn2C)cn1C [C11, reference compound] | 30-100 fold | much weaker binding | lack of footprints |  |  |  |  |  |  |  | 
2 | COC(=O)c1cc(NC(=O)CCCOc2cc3c(cc2OC)C(=O)N2CCC[C@H]2C=N3)cn1C [GWL 77, (11aS) methyl 4-[4-(7-methoxy-5-oxo-2,3,5,11a-tetrahydro-5H-pyrrolo[2,1-c][1,4]benzodiazepine-8-yloxy)-butyrylamino]-1-methyl-1H-pyrrole-2-carboxylate] |  |  |  | footprinted | ≤ 5.00 | 7.29 | clear nuclear uptake | < 1 | strong nuclear fluorescence |  | 
3 | COC(=O)c1cc(NC(=O)c2cc(NC(=O)CCCOc3cc4c(cc3OC)C(=O)N3CCC[C@H]3C=N4)cn2C)cn1C [GWL 78, (11aS) methyl 4-({4-[4-(7-methoxy-5-oxo-2,3,5,11a-tetrahydro-5H-pyrrolo[2,1-c][1,4]benzodiazepine-8-yloxy)-butyrylamino]-1-methyl-1H-pyrrole-2-carbonyl}-amino)-1-methyl-1H-pyrrole-2-carboxylate] |  |  |  | footprinted |  |  | clear nuclear uptake | 3 | strong nuclear fluorescence |  | 
4 | COC(=O)c1cc(NC(=O)c2cc(NC(=O)c3cc(NC(=O)CCCOc4cc5c(cc4OC)C(=O)N4CCC[C@H]4C=N5)cn3C)cn2C)cn1C [GWL 79, (11aS) methyl 4-{[4-({4-[4-(7-methoxy-5-oxo-2,3,5,11a-tetrahydro-5H-pyrrolo[2,1-c][1,4]benzodiazepine-8-yloxy)-butyrylamino]-1-methyl-1H-pyrrole-2-carbonyl]-amino)-1-methyl-1H-pyrrole-2-carbonyl]-amino}-1-methyl-1H-pyrrole-2-carboxylate] |  |  |  |  |  |  | clear nuclear uptake | 3 | strong nuclear fluorescence |  | 
5 | COC(=O)c1cc(NC(=O)c2cc(NC(=O)c3cc(NC(=O)c4cc(NC(=O)CCCOc5cc6c(cc5OC)C(=O)N5CCC[C@H]5C=N6)cn4C)cn3C)cn2C)cn1C [GWL 80, (11aS) methyl 4-[(4-{[4-({4-[4-(7-methoxy-5-oxo-2,3,5,11a-tetrahydro-5H-pyrrolo[2,1-c][1,4]benzodiazepine-8-yloxy)-butyrylamino]-1-methyl-1H-pyrrole-2-carbonyl]-amino)-1-methyl-1H-pyrrole-2-carbonyl]-amino}-1-methyl-1H-pyrrole-2-carbonyl)-amino]-1-methyl-1H-pyrrole-2-carboxylate] |  |  |  | footprinted |  |  |  |  | more diffuse throughout the cell | ^127, 29, 31 show evidence of two closely juxtaposed footprints at this position | ^227, 29, 31 show evidence of two closely juxtaposed footprints at this position
6 | COC(=O)c1cc(NC(=O)c2cc(NC(=O)c3cc(NC(=O)c4cc(NC(=O)c5cc(NC(=O)CCCOc6cc7c(cc6OC)C(=O)N6CCC[C@H]6C=N7)cn5C)cn4C)cn3C)cn2C)cn1C [GWL 81, (11aS) methyl 4-({4-[(4-{[4-({4-[4-(7-methoxy-5-oxo-2,3,5,11a-tetrahydro-5H-pyrrolo[2,1-c][1,4]benzodiazepine-8-yloxy)-butyrylamino]-1-methyl-1H-pyrrole-2-carbonyl]-amino)-1-methyl-1H-pyrrole-2-carbonyl]-amino}-1-methyl-1H-pyrrole-2-carbonyl)-amino]-1-methyl-1H-pyrrole-2-carbonyl}-amino)-1-methyl-1H-pyrrole-2-carboxylate] |  |  |  | footprinted |  |  |  |  | more diffuse throughout the cell | ^127, 29, 31 show evidence of two closely juxtaposed footprints at this position | ^227, 29, 31 show evidence of two closely juxtaposed footprints at this position
7 | COC(=O)c1cc(NC(=O)c2cc(NC(=O)c3cc(NC(=O)c4cc(NC(=O)c5cc(NC(=O)c6cc(NC(=O)CCCOc7cc8c(cc7OC)C(=O)N7CCC[C@H]7C=N8)cn6C)cn5C)cn4C)cn3C)cn2C)cn1C [GWL 82, (11aS) methyl 4-{[4-({4-[(4-{[4-({4-[4-(7-methoxy-5-oxo-2,3,5,11a-tetrahydro-5H-pyrrolo[2,1-c][1,4]benzodiazepine-8-yloxy)-butyrylamino]-1-methyl-1H-pyrrole-2-carbonyl]-amino)-1-methyl-1H-pyrrole-2-carbonyl]-amino}-1-methyl-1H-pyrrole-2-carbonyl)-amino]-1-methyl-1H-pyrrole-2-carbonyl}-amino)-1-methyl-1H-pyrrole-2-carbonyl]-amino}-1-methyl-1H-pyrrole-2-carboxylate] |  |  |  |  |  | 7.49 |  |  | more diffuse throughout the cell | ^127, 29, 31 show evidence of two closely juxtaposed footprints at this position | ^227, 29, 31 show evidence of two closely juxtaposed footprints at this position
